Activity calls are given as the source filed them.
What was measured:
Mus musculus [1] = species: Mus musculus; experiment: Anti-NASH activity in GAN diet-induced […] mouse assessed as reduction in Fabp4 mRNA expression level; assay type: functional, organism-based
Liver [2] = experiment: Anti-NASH activity in GAN diet-induced […] mouse liver assessed as reduction in hepatocyte fat by Sirius red staining based analysis; assay type: functional, cell-based
Mus musculus [3] = species: Mus musculus; experiment: Anti-NASH activity in GAN diet-induced […] mouse assessed as upregulation of Cyp7a1 mRNA expression in liver; assay type: functional, organism-based
Mus musculus [4] = species: Mus musculus; experiment: Anti-NASH activity in GAN diet-induced […] mouse assessed as decrease in cholesterol in liver; assay type: functional, organism-based
Mus musculus [5] = experiment: Anti-NASH activity in GAN diet-induced […] mouse assessed as reduction of sphinogo-myelin level in serum administered orally for 12 weeks; assay type: functional, organism-based; details: route po
Mus musculus [6] = species: Mus musculus; experiment: Anti-NASH activity in GAN diet-induced […] mouse assessed as reduction in liver index; assay type: functional, organism-based
Liver [7] = experiment: Anti-NASH activity in GAN diet-induced […] mouse liver assessed as reduction in macrosteatosis by Oil Red O staining based assay; assay type: functional
Mus musculus [8] = species: Mus musculus; experiment: Anti-NASH activity in GAN diet-induced […] mouse assessed as reduction in Plin2 mRNA expression level; assay type: functional, organism-based
Mus musculus [9] = species: Mus musculus; experiment: Anti-NASH activity in GAN diet-induced […] mouse assessed as reduction in A-sma mRNA expression; assay type: functional, organism-based
Mus musculus [10] = experiment: Anti-NASH activity in GAN diet-induced […] mouse assessed as reduction of ceramide level in serum administered orally for 12 weeks; assay type: functional, organism-based; details: route po
Mus musculus [11] = species: Mus musculus; experiment: Anti-NASH activity in GAN diet-induced […] mouse assessed as reduction in cleaved caspase 1 level; assay type: functional, organism-based
Mus musculus [12] = species: Mus musculus; experiment: Anti-NASH activity in GAN diet-induced […] mouse assessed as bile acid level in gall bladder; assay type: functional, organism-based
[13] = biological target: T1, Bile acid receptor (Mus musculus) (UniProt Q60641); experiment: In vivo antagonist activity against FXR in mouse assessed as reduction in Fgf15 level in presence of GW4064; assay type: functional
T1 sequence (whole entry): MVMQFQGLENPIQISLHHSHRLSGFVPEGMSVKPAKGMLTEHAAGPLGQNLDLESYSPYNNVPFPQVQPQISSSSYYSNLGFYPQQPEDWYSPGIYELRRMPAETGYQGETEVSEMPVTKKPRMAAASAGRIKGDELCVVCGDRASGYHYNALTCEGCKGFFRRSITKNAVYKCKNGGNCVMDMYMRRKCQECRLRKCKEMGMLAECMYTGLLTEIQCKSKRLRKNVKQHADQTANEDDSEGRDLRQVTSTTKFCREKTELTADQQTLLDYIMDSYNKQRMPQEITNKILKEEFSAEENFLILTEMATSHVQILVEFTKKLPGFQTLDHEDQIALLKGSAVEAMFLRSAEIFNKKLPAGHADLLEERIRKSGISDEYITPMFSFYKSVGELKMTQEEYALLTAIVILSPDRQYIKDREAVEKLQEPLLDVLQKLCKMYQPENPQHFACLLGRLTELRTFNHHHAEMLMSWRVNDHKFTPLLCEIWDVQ

Mus musculus [14] = experiment: Anti-NASH activity in GAN-induced […] mouse assessed as reduction in body weight at 10 mg/kg, IG measured after 12 weeks; assay type: functional, organism-based
Liver [15] = experiment: Anti-NASH activity in GAN diet-induced […] mouse liver assessed as reduction in hepatocyte fat by H and E staining based analysis; assay type: functional, cell-based
[16] = biological target: T1, Bile acid receptor (Mus musculus); experiment: In vivo antagonist activity against FXR in mouse assessed as reduction in Fxr level in presence of CDCA; assay type: functional
Mus musculus [17] = species: Mus musculus; experiment: Anti-NASH activity in GAN diet-induced […] mouse assessed as reduction in liver weight; assay type: functional, organism-based
Mus musculus [18] = species: Mus musculus; experiment: Anti-NASH activity in GAN diet-induced […] mouse assessed as reduction in hepatic triglycerides level; assay type: functional, organism-based
Mus musculus [19] = experiment: Anti-NASH activity in GAN diet-induced […] mouse assessed as reduction of glycosyl-ceramide level in serum administered orally for 12 weeks; assay type: functional, organism-based; details: route po
Mus musculus [20] = species: Mus musculus; experiment: Anti-NASH activity in GAN diet-induced […] mouse assessed as upregulation of Ppara mRNA expression level; assay type: functional, organism-based
Mus musculus [21] = species: Mus musculus; experiment: Anti-NASH activity in GAN diet-induced […] mouse assessed as decrease in hydroxyproline in liver; assay type: functional, organism-based
Mus musculus [22] = experiment: Anti-NASH activity in HFMCD diet-induced […] mouse assessed as reduction in hepatic TG concentration at 10 to 30 mg/kg, po for 4 weeks; assay type: functional, organism-based; details: dose 10-30 mg/kg
Mus musculus [23] = experiment: Anti-NASH activity in GAN-induced […] mouse assessed as reduction in random blood glucose level at 10 mg/kg measured upto 120 mins; assay type: functional, organism-based
Mus musculus [24] = species: Mus musculus; experiment: Anti-NASH activity in GAN diet-induced […] mouse assessed as increase in FXR protein by Western blot analysis; assay type: functional, organism-based
Liver [25] = experiment: Anti-NASH activity in GAN diet-induced […] mouse liver assessed as reduction in hepatocyte collagen deposition by Oil Red O staining based assay; assay type: functional, cell-based
Mus musculus [26] = experiment: Anti-NASH activity in HFMCD diet-induced […] mouse assessed as reduction in ALT serum level at 30 mg/kg, po for 4 weeks; assay type: functional, organism-based
Mus musculus [27] = species: Mus musculus; experiment: Anti-NASH activity in GAN diet-induced […] mouse assessed as reduction in hepatic cholesterol level; assay type: functional, organism-based
Mus musculus [28] = species: Mus musculus; experiment: Anti-NASH activity in GAN diet-induced […] mouse assessed as downregulation of Ccl2 level; assay type: functional, organism-based
Liver [29] = experiment: Anti-NASH activity in GAN diet-induced […] mouse liver assessed as reduction in hepatocyte ballooning by H and E staining based analysis; assay type: functional, cell-based
Mus musculus [30] = species: Mus musculus; experiment: Anti-NASH activity in GAN diet-induced […] mouse assessed as reduction in N-tcp mRNA level; assay type: functional, organism-based
Mus musculus [31] = species: Mus musculus; experiment: Anti-NASH activity in GAN diet-induced […] mouse assessed as reduction in bile acid loss in cecum content; assay type: functional, organism-based
Mus musculus [32] = experiment: Anti-NASH activity in GAN-induced mouse assessed as increase in insulin sensitivity at 10 mg/kg; assay type: functional, organism-based
Mus musculus [33] = species: Mus musculus; experiment: Anti-NASH activity in GAN diet-induced […] mouse assessed as reduction in mature Il1beta; assay type: functional, organism-based
Mus musculus [34] = species: Mus musculus; experiment: Anti-NASH activity in GAN diet-induced […] mouse assessed as upregulation of Cyp8b1 mRNA expression in liver; assay type: functional, organism-based
Mus musculus [35] = experiment: Anti-NASH activity in HFMCD diet-induced […] mouse assessed as reduction in AST serum level at 30 mg/kg, po for 4 weeks; assay type: functional, organism-based
Mus musculus [36] = species: Mus musculus; experiment: Anti-NASH activity in GAN diet-induced […] mouse assessed as reduction in Cd36 mRNA expression level; assay type: functional, organism-based
Liver [37] = experiment: Anti-NASH activity in GAN diet-induced […] mouse liver assessed as reduction in hepatocyte collagen deposition by H and E staining based analysis; assay type: functional, cell-based
Mus musculus [38] = experiment: Anti-NASH activity in GAN-induced […] mouse assessed as increase in rectal temperature at 10 mg/kg; assay type: functional, organism-based

Measured: Activity

CCCC(=O)O[C@@H]1CC[C@]2(C)[C@H]3CC[C@@H]4[C@H]5[C@H](C(C)C)CC[C@]5(C(=O)NCC(=O)O)CC[C@@]4(C)[C@]3(C)CC[C@H]2C1(C)C
active: Mus musculus [1] | Liver [2] | Mus musculus [3] | Mus musculus [4] | Mus musculus [5] | Mus musculus [6] | Liver [7] | Mus musculus [8] | Mus musculus [9] | Mus musculus [10] | Mus musculus [11] | Mus musculus [12] | [13] | Mus musculus [14] | Liver [15] | [16] | Mus musculus [17] | Mus musculus [18] | Mus musculus [19] | Mus musculus [20] | Mus musculus [21] | Mus musculus [22] | Mus musculus [23] | Mus musculus [24] | Liver [25] | Mus musculus [26] | Mus musculus [27] | Mus musculus [28] | Liver [29] | Mus musculus [30] | Mus musculus [31] | Mus musculus [32] | Mus musculus [33] | Mus musculus [34] | Mus musculus [35] | Mus musculus [36] | Liver [37] | Mus musculus [38]

From ChEMBL document CHEMBL5096210, “Discovery of Betulinic Acid Derivatives as Potent Intestinal Farnesoid X Receptor Antagonists to Ameliorate Nonalcoholic Steatohepatitis” (J Med Chem, 2022)
